Test results published in PMC7588595, “Small-molecule active pharmaceutical ingredients of approved cancer therapeutics inhibit human aspartate/asparagine-β-hydroxylase” (Bioorganic & Medicinal Chemistry, 2020).
Counter-ions that a name gives are not always drawn. Like-named read-outs stand apart in the source and are kept apart here.

Biological target: T1, human AspH (His6-AspH315–758) (Homo sapiens, UniProt Q12797)
T1 construct: N-Terminally His6-tagged human AspH315–758 (His6-AspH315–758) was produced in Escherichia coli BL21 (DE3) cells; made in house; host or cells: Escherichia coli BL21 (DE3), pET-28a(+) vector
T1 sequence (Q12797 315-758): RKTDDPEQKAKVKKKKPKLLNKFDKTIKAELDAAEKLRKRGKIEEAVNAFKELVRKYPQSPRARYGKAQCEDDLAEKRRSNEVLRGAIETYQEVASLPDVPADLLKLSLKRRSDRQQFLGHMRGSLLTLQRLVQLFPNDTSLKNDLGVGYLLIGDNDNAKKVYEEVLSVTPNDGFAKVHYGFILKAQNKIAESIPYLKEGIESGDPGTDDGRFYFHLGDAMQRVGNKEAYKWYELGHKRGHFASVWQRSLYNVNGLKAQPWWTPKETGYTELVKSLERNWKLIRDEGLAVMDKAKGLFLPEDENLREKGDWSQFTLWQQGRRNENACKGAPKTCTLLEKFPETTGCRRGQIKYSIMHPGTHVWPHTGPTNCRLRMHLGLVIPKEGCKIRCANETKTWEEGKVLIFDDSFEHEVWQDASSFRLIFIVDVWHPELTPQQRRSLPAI
Assay: SPE-MS AspH inhibition assay (hFX-CP101-119 substrate hydroxylation)
Type: biochemical

[1] = AspH-inhibitor screening, 384-well Plate 1
[2] = AspH-inhibitor screening, 384-well Plate 1, substrate conversion
[3] = AspH-inhibitor screening, Plate 1-duplicate
[4] = AspH-inhibitor screening, Plate 1-duplicate, substrate conversion

| Compound | Plate 1 (% inhibition) [1] [%] | Plate 1 (% conversion) [2] [%] | Plate 1-duplicate (% inhibition) [3] [%] | Plate 1-duplicate (% conversion) [4] [%] | Plate 1 (% conversion) [%] | Plate 1-duplicate (% conversion) [%] | Plate 1 (% inhibition) [%] | Plate 1-duplicate (% inhibition) [%] |
| --- | --- | --- | --- | --- | --- | --- | --- | --- |
| O=C(c1ccc(OCCN2CCCCC2)cc1)c1c(-c2ccc(O)cc2)sc2cc(O)ccc12 [Raloxifene] | 17.35 | 41.74 | 14.45 | 44.88 | – | – | – | – |
| CO[C@H]1C[C@@H]2CC[C@@H](C)[C@@](O)(O2)C(=O)C(=O)N2CCCC[C@H]2C(=O)O[C@H]([C@H](C)C[C@@H]2CC[C@@H](O)[C@H](OC)C2)CC(=O)[C@H](C)/C=C(\C)[C@@H](O)[C@@H](OC)C(=O)[C@H](C)C[C@H](C)/C=C/C=C/C=C/1C [Rapamycin (sirolimus)] | -16.43 | 57.34 | -26.38 | 65.13 | – | – | – | – |
| CO[C@H]1C[C@@H]2CC[C@@H](C)[C@@](O)(O2)C(=O)C(=O)N2CCCC[C@H]2C(=O)O[C@H]([C@H](C)C[C@@H]2CC[C@@H](OP(C)(C)=O)[C@H](OC)C2)CC(=O)[C@H](C)/C=C(\C)[C@@H](O)[C@@H](OC)C(=O)[C@H](C)C[C@H](C)/C=C/C=C/C=C/1C [Ridaforolimus] | 16.02 | 42.35 | 8.84 | 47.66 | – | – | – | – |
| CS(=O)(=O)c1ccc(C2=C(c3ccccc3)C(=O)OC2)cc1 [Rofecoxib (Vioxx)] | 0.07 | 49.72 | 2.99 | 50.56 | – | – | – | – |
| C/C=C1\NC(=O)[C@H]2CSSCC/C=C/[C@H](CC(=O)N[C@H](C(C)C)C(=O)N2)OC(=O)[C@H](C(C)C)NC1=O [Romidepsin] | 31.77 | 35.08 | 29.51 | 37.41 | – | – | – | – |
| CC[C@H](CO)Nc1nc(NCc2ccccc2)c2ncn(C(C)C)c2n1 [Roscovitine_Selicilib] | – | – | – | – | 48.67 | 50.17 | – | – |
| Cc1ccc(C(=O)N(CCCN)[C@@H](c2oc3cc(Cl)ccc3c(=O)c2Cc2ccccc2)C(C)C)cc1 [SB 743921] | -12.94 | 55.72 | -30.32 | 67.08 | – | – | – | – |
| CC(C)n1cnc2c(NCCc3ccc(O)cc3)nc(-c3csc4ccccc34)nc21.Cl [SR1 HCl] | 33.05 | 34.49 | 43.66 | 30.39 | – | – | – | – |
| CCC(C)(C)C(=O)O[C@H]1C[C@@H](C)C=C2C=C[C@H](C)[C@H](CC[C@@H]3C[C@@H](O)CC(=O)O3)[C@H]21 [Simvastatin] | -15.63 | 56.97 | -16.09 | 60.02 | – | – | – | – |
| CNC(=O)c1cc(Oc2ccc(NC(=O)Nc3ccc(Cl)c(C(F)(F)F)c3)cc2)ccn1 [Sorafenib] | 50.93 | 26.23 | 41.45 | 31.48 | – | – | – | – |
| CN1CCN(c2nc(C3=C(c4c[nH]c5ccccc45)C(=O)NC3=O)c3ccccc3n2)CC1 [Sotrastaurin] | 20.56 | 40.26 | 11.48 | 46.35 | – | – | – | – |
| O=[N+]([O-])c1ccc2c(c1)S(=O)(=O)C=C2 [Stattic] | 9.52 | 45.35 | 9.59 | 47.29 | – | – | – | – |
| CN(N=O)C(=O)N[C@@H](C=O)[C@@H](O)[C@H](O)[C@H](O)CO [Streptozocin] | 6.30 | 46.84 | 4.95 | 49.58 | – | – | – | – |
| CCN(CC)CCNC(=O)c1c(C)[nH]c(/C=C2\C(=O)Nc3ccc(F)cc32)c1C [Sunitinib] | -40.27 | 68.35 | -34.40 | 69.10 | – | – | – | – |
| Cn1c(=O)c(F)c(Nc2ccc(I)cc2F)c2c(=O)n(C[C@@H](O)CO)cnc21 [TAK-733] | -22.47 | 60.13 | -22.24 | 63.07 | – | – | – | – |
| CCS(=O)(=O)c1cccc(-c2cc(C(=O)NC3CCN(C)CC3)c(C)c3[nH]c4ncc(C)cc4c23)c1 [TAK-901] | -15.73 | 57.02 | -23.07 | 63.48 | – | – | – | – |
| Cc1cc(C(C)Nc2ccccc2)c2nc(N3CCOCC3)cc(=O)n2c1 (centres unmarked) [TGX-221] | -1.55 | 50.47 | 0.18 | 51.95 | – | – | – | – |
| CC/C(=C(\c1ccccc1)c1ccc(OCCN(C)C)cc1)c1ccccc1 [Tamoxifen citrate] | 67.86 | 18.41 | 59.34 | 22.61 | – | – | – | – |
| COc1cc2c(N3CCN(C(=O)Nc4ccc(OC(C)C)cc4)CC3)ncnc2cc1OCCCN1CCCCC1 [Tandutinib] | -11.71 | 55.16 | -8.54 | 56.28 | – | – | – | – |
| C[C@@H]1CCN(C(=O)CC#N)C[C@@H]1N(C)c1ncnc2[nH]ccc12 [Tasocitinib_Tofacitinib] | 9.63 | 45.30 | 6.13 | 49.00 | – | – | – | – |
| Cn1nnc2c(C(N)=O)ncn2c1=O [Temozolomide] | 5.12 | 47.38 | 8.46 | 47.85 | – | – | – | – |
| CO[C@H]1C[C@@H]2CC[C@@H](C)[C@@](O)(O2)C(=O)C(=O)N2CCCC[C@H]2C(=O)O[C@H]([C@H](C)C[C@@H]2CC[C@@H](OC(=O)C(C)(CO)CO)[C@H](OC)C2)CC(=O)[C@H](C)/C=C(\C)[C@@H](O)[C@@H](OC)C(=O)[C@H](C)C[C@H](C)/C=C/C=C/C=C/1C [Temsirolimus] | 35.77 | 33.23 | 28.92 | 37.70 | – | – | – | – |
| COc1cc([C@@H]2c3cc4c(cc3[C@@H](O[C@@H]3O[C@@H]5CO[C@@H](c6cccs6)O[C@H]5[C@H](O)[C@H]3O)[C@H]3COC(=O)[C@H]23)OCO4)cc(OC)c1O [Teniposide] | 10.91 | 44.71 | 6.57 | 48.78 | – | – | – | – |
| Cl.c1ccc(C2CN3CCSC3=N2)cc1 (centres unmarked) [Tetramisole HCl] | – | – | – | – | 46.13 | 48.14 | 7.83 | 7.87 |
| O=C1CCC(N2C(=O)c3ccccc3C2=O)C(=O)N1 (centres unmarked) [Thalidomide] | 3.16 | 48.29 | 1.43 | 51.33 | – | – | – | – |
| S=P(N1CC1)(N1CC1)N1CC1 [Thio-TEPA] | 17.81 | 41.53 | 7.73 | 48.21 | – | – | – | – |
| Nc1nc2nc[nH]c2c(=S)[nH]1 [Thioguanine] | 7.28 | 46.39 | 8.14 | 48.00 | – | – | – | – |
| Cn1cncc1[C@@](N)(c1ccc(Cl)cc1)c1ccc2c(c1)c(-c1cccc(Cl)c1)cc(=O)n2C [Tipifarnib (Zarnestra)] | -67.01 | 80.70 | -61.42 | 82.50 | – | – | – | – |
